Earlier results on one molecule are cited in patent US9808468B2, “Formulation of meloxicam” (ICEUTICA PTY LTD., priority 2014, dated 2017).

For `Cc1cnc(NC(=O)C2=C(O)c3ccccc3S(=O)(=O)N2C)s1` [Meloxicam, 4-hydroxy-2-methyl-N-(5-methyl-2-thiazolyl)-2H-1,2-benzothiazine-3-carboxamide-1,1-dioxide], the solubility in water result is given as “practically insoluble”.
